3 compounds from US20220125745A1, “PHARMACEUTICAL COMPOSITION FOR CO-ADMINISTRATION OF ACIDOSIS-INDUCING DRUG” (HAIM BIO CO., LTD., priority 2018, published 2022) can be followed below.

Like-named read-outs stand apart in the source and are kept apart here.

Test [1] has as its system A549 cells (cancer cells). Kind of test: Lactate assay (luminescence) in A549 cells, candidate substance alone or combined with a substance that causes lactic acidosis. In kind it is cell-based. The following applies: for activity at 50 µM: Homo sapiens. The protocol: (§1) To identify the effects of administration of the candidate substances for lactic acidosis treatment as described in Example 1 in combination with the above-mentioned substances that cause lactic acidosis, A549 cells (cancer cells) or L132 cells (normal cells) were respectively seeded in 96- or 24-well plates at a concentration of 1×10^4 or 3×10^5 cells/well, and incubation was performed overnight. Administration of the candidate substance for acidosis treatment in combination with the substance that causes lactic acidosis was performed and incubation was further performed for 24 hours. For the candidate substances for acidosis treatment, each substance was administered at a uniform concentration of 50 μM; and for the substances that cause lactic acidosis, metformin was administered at 1 to 100 μM, isoniazid was administered at 1 to 500 μM, berberine was administered at 10 μM, linezolid was administered at 200 μM, and phenformin was administered at 100 μM. All substances were dissolved in dimethyl sulfoxide (DMSO, Sigma-Aldrich Corporation, St. Louis, Mo., USA), and the substances to be administered in combination were administered simultaneously. Subsequently, 50 μl of the cell culture solution obtained by being diluted with Dulbecco's Phosphate-Buffered Saline (DPBS; Wellgene, Korea), and 50 μl of the lactate assay reaction buffer (Promega, Madison, Wis., USA) were mixed and the mixture was added in a 96-well plate. Reaction was allowed to proceed at room temperature for 1 hour. Then, luminescence was measured with a spectrophotometer (Synergy HTX Multi-Reader; BioTek, Winooski, Vt., USA). At the same time, the number of cells in each sample was measured with a cell viability analysis kit (Cell Counting Kit-8; Dojindo Molecular Technologies, Inc., Kumamoto, Japan), and calculation was performed so that the lactic acid measurement value in each sample could be compared with that in the negative control for the same number of cells.

Test [2] deals with L132 cells (normal cells). Kind of test: Lactate assay (luminescence) in L132 cells, candidate substance alone or combined with a substance that causes lactic acidosis. The test is classed as cell-based. The following applies: for activity at 50 µM: Homo sapiens. Here is the method: as §1
Where [3] appears, read: A549, candidate 50 μM + berberine 10 μM, relative to berberine alone (PC).
The mark [4] stands for this setting: A549, candidate 50 μM + linezolid 200 μM, relative to linezolid alone (PC).
The mark [5] stands for this setting: A549, candidate 50 μM + phenformin 100 μM, relative to phenformin alone (PC).
The mark [6] stands for this setting: L132, candidate 50 μM + berberine 10 μM, relative to berberine alone (PC).
Where [7] appears, read: L132, candidate 50 μM + linezolid 200 μM, relative to linezolid alone (PC).
[8] abbreviates: L132, candidate 50 μM + phenformin 100 μM, relative to phenformin alone (PC).

For the compound `C=C(OP(=O)([O-])O)C(=O)O.O.[Na+]` [Phospho(enol)pyruvic acid monosodium salt hydrate], the “Lactic acid value vs. PC (%)” value was determined as 90.07% in test [1] (setting [3]); 92.96% in test [1] (setting [4]); 94.91% in test [1] (setting [5]); 93.05% in test [2] (setting [6]); 89.30% in test [2] (setting [7]); 91.45% in test [2] (setting [8]). Also, the “Lactic acid-decreasing rate vs. PC (%)” value turned out to be 9.93% in test [1] (setting [3]); 7.04% in test [1] (setting [4]); 5.09% in test [1] (setting [5]); 6.95% in test [2] (setting [6]); 10.70% in test [2] (setting [7]); 8.55% in test [2] (setting [8]). The “Luminescence intensity (%), Berberine (10 μM) −” value in test [1] (A549, candidate 50 μM alone, no berberine, 24 h, vs negative control, mean ± SEM) is 100.07 ± 1.80^ %; in test [2] (L132, candidate 50 μM alone, no berberine, 24 h, vs negative control, mean ± SEM) it was 94.55 ± 1.37 %. The “Luminescence intensity (%), Linezolid (200 μM) −” value in test [1] (A549, candidate 50 μM alone, no linezolid, 24 h, vs negative control, mean ± SEM) was 100.07 ± 1.80^ %; in test [2] (L132, candidate 50 μM alone, no linezolid, 24 h, vs negative control, mean ± SEM), 94.55 ± 1.37 %. The “Luminescence intensity (%), Phenformin (100 μM) −” value in test [1] (A549, candidate 50 μM alone, no phenformin, 24 h, vs negative control, mean ± SEM) was 100.07 ± 1.80^ %; in test [2] (L132, candidate 50 μM alone, no phenformin, 24 h, vs negative control, mean ± SEM), 94.55 ± 1.37 %.

As to `CCCNC(=O)NS(=O)(=O)c1ccc(Cl)cc1` [Chlorpropamide], the “Lactic acid value vs. PC (%)” value in test [1] (setting [3]) amounted to 90.69%; in test [1] (setting [4]), 86.81%; in test [1] (setting [5]) it was 94.87%; in test [2] (setting [6]), 102.38%; in test [2] (setting [7]), 90.11%; in test [2] (setting [8]) it was 96.68%. Moreover, the “Lactic acid-decreasing rate vs. PC (%)” value in test [1] (setting [3]) was 9.31%; in test [1] (setting [4]), 13.19%; in test [1] (setting [5]), 5.13%; in test [2] (setting [6]), −2.38%; in test [2] (setting [7]) it was 9.89%; in test [2] (setting [8]), 3.32%. The activity at 50 µM in test [1] (A549, candidate 50 μM alone, no berberine, 24 h, vs negative control, mean ± SEM, read-out: Luminescence intensity (%), Berberine (10 μM) −) is 97 ± 1.24%; in test [1] (A549, candidate 50 μM alone, no linezolid, 24 h, vs negative control, mean ± SEM, read-out: Luminescence intensity (%), Linezolid (200 μM) −) it was 97 ± 1.24%; in test [1] (A549, candidate 50 μM alone, no phenformin, 24 h, vs negative control, mean ± SEM, read-out: Luminescence intensity (%), Phenformin (100 μM) −), 97 ± 1.24%; in test [2] (L132, candidate 50 μM alone, no berberine, 24 h, vs negative control, mean ± SEM, read-out: Luminescence intensity (%), Berberine (10 μM) −), 92.4 ± 1.05%; in test [2] (L132, candidate 50 μM alone, no linezolid, 24 h, vs negative control, mean ± SEM, read-out: Luminescence intensity (%), Linezolid (200 μM) −) it was 92.4 ± 1.05%; in test [2] (L132, candidate 50 μM alone, no phenformin, 24 h, vs negative control, mean ± SEM, read-out: Luminescence intensity (%), Phenformin (100 μM) −), 92.4 ± 1.05%.

Consider `O=c1c(-c2ccc(O)cc2)coc2cc(O[C@@H]3O[C@H](CO)[C@@H](O)[C@H](O)[C@H]3O)ccc12` [Daidzin], for which the “Lactic acid value vs. PC (%)” value in test [1] (setting [3]) was determined as 92.49%; in test [1] (setting [4]) it was 82.45%; in test [1] (setting [5]), 99.76%; in test [2] (setting [6]) it was 95.94%; in test [2] (setting [7]), 87.80%; in test [2] (setting [8]), 98.19%. Further, the “Lactic acid-decreasing rate vs. PC (%)” value in test [1] (setting [3]) stood at 7.51%; in test [1] (setting [4]), 17.55%; in test [1] (setting [5]) it was 0.24%; in test [2] (setting [6]), 4.06%; in test [2] (setting [7]), 12.20%; in test [2] (setting [8]), 1.81%. In addition, the activity at 50 µM was determined as 97.4 ± 1.1% in test [1] (A549, 24 h, read-out: Luminescence intensity (%), Berberine (10 μM) −); 97.4 ± 1.1% in test [1] (A549, 24 h, read-out: Luminescence intensity (%), Linezolid (200 μM) −); 97.4 ± 1.1% in test [1] (A549, 24 h, read-out: Luminescence intensity (%), Phenformin (100 μM) −); 92 ± 1.14% in test [2] (L132, 24 h, read-out: Luminescence intensity (%), Berberine (10 μM) −); 92 ± 1.14% in test [2] (L132, 24 h, read-out: Luminescence intensity (%), Linezolid (200 μM) −); 92 ± 1.14% in test [2] (L132, 24 h, read-out: Luminescence intensity (%), Phenformin (100 μM) −).
